{
  "source": "patent US10272158B2",
  "about": "“Compounds for treating biofilm infection” (Board of Regents, The University of Texas System, priority 2014, dated 2019)",
  "type_in_all_cases": "cell-based, Pseudomonas aeruginosa PAO1",
  "key": {"[1]": {"test_system": "P. aeruginosa biofilm formation phase", "experiment": "Crystal violet assay of biofilm biomass, biofilm formation phase", "experimental": "Bacterial cell suspension was added in sterile 96 well plates and incubated for 90 min under similar conditions as described in the section of Biofilm Formation. After the initial adhesion phase, adherent cells were treated with different samples in a concentration gradient, including control (PBS), tobramycin, and Tob-PEG. After 24 h incubation under 37° C. and 80 rpm, reduction assay of 2,3-bis(2-methoxy-4-nitro-5-sulfo-phenyl)-2H-tetrazolium-5-carboxanilide (XTT) was performed to quantify the viability of biofilm and crystal violet assay was used to measure biofilm biomass. At the end of incubation of both test and control biofilm, crystal violet assay was performed to quantify biofilm biomass. Biofilm was carefully washed twice with PBS and stained with 1% crystal violet solution for 15 min at 25° C. without shaking. Wells were carefully washed three times with PBS to remove excess stain and air dried in room temperature. Thirty percent acetic acid was added to the wells containing stained biofilm and incubated for 20 min at 25° C. The solution was transferred to a new well plate and optical density was measured at 570 nm."}, "[2]": {"test_system": "P. aeruginosa pre-formed biofilm", "experiment": "Elimination of pre-formed biofilm in time dependent test (XTT)", "conditions": "each at its biofilm MIC80 (Tob-PEG 27.81, tobramycin 89.80 μmol/L), 1-36 h", "experimental": "P. aeruginosa pre-formed biofilm was developed as described previously and was treated with different samples at respective biofilm MIC80 concentrations. The plates were then incubated for 24 h at 37° C. and 80 rpm. XTT reduction assay was performed to selected samples at predetermined time points (1 h, 2 h, 3 h, 4 h, 5 h, 6 h, 9 h, 12 h, 15 h, 18 h, 21 h, 24 h and 36 h after incubation) to assess the percentage of time dependent bacterial inhibition."}, "[3]": {"test_system": "P. aeruginosa pre-formed biofilm", "experiment": "MIC80 in pre-formed biofilm phase, XTT reduction assay", "conditions": "pre-formed biofilm (24 h), 24 h treatment", "experimental": "(§1) Pseudomonas aeruginosa (P. aeruginosa) PAO1 was used throughout the study. Blood agar and Brain heart infusion (BHI) solution were used for culturing P. aeruginosa.\n(§2) Prior to each experiment, P. aeruginosa was cultured on blood agar for 18 h at 37° C. A loopful of the overnight bacterial growth was inoculated into BHI medium, and incubated for 18 h in an orbital shaker (80 rpm) at 37° C. The resultant growth was harvested, washed twice in Phosphate Buffered Saline (PBS, pH 7.4) and resuspended. The concentration of P. aeruginosa was adjusted to 1×10^7 cells/mL by spectrophotometry and confirmed by hemocytometric counting.\n(§3) P. aeruginosa biofilm was developed as described (Bandara et al., 2010) with minor modifications. Commercially available pre-sterilized, polystyrene, flat bottom 96-well microtiter plates (BD Biosciences, California, USA) were used. […]\nP. aeruginosa pre-formed biofilm was developed after 24 h incubation of adherent cells in sterile 96 well plates, as described in the section of Biofilm Formation. […] At the end of incubation period, XTT reduction assay was performed to quantify the viability of biofilm and crystal violet assay was used to measure biofilm biomass."}, "[4]": {"test_system": "P. aeruginosa planktonic phase", "experiment": "Minimum inhibitory concentration (MIC80) in planktonic phase, broth microdilution, optical density 595 nm", "conditions": "24 h, 80% growth inhibition", "experimental": "Pseudomonas aeruginosa (P. aeruginosa) PAO1 was used throughout the study. Blood agar and Brain heart infusion (BHI) solution were used for culturing P. aeruginosa. Prior to each experiment, P. aeruginosa was cultured on blood agar for 18 h at 37° C. A loopful of the overnight bacterial growth was inoculated into BHI medium, and incubated for 18 h in an orbital shaker (80 rpm) at 37° C. The resultant growth was harvested, washed twice in Phosphate Buffered Saline (PBS, pH 7.4) and resuspended. The concentration of P. aeruginosa was adjusted to 1×10^7 cells/mL by spectrophotometry and confirmed by hemocytometric counting. Briefly, bacterial cell suspension (5×10^5 cells/mL) were treated with the antibiotic in a concentration gradient and incubated in a 96 well microtiter plate for 24 h at 35° C. At the end of the incubation, the optical density of the bacterial growth was measured by a spectrophotometer at 595 nm. The lowest concentration of the antibiotic at which 80% of bacterial growth inhibition was achieved was considered as the MIC80 of this antibiotic against P. aeruginosa. The assay was performed quadruplicates at three times."}, "[5]": {"test_system": "P. aeruginosa biofilm formation phase", "experiment": "MIC80 in biofilm formation phase, XTT reduction assay", "conditions": "Pseudomonas aeruginosa, 24 h, read-out: critical concentration necessary for 80% suppression of P. aeruginosa viability (MIC80)", "experimental": "as §1, §2, §3\nBacterial cell suspension was added in sterile 96 well plates and incubated for 90 min under similar conditions as described in the section of Biofilm Formation. […] After 24 h incubation under 37° C. and 80 rpm, reduction assay of 2,3-bis(2-methoxy-4-nitro-5-sulfo-phenyl)-2H-tetrazolium-5-carboxanilide (XTT) was performed to quantify the viability of biofilm and crystal violet assay was used to measure biofilm biomass."}},
  "note": "Where “and” joins values, the source holds several entries; their conditions need not be identical. Identical values can stand only once.",
  "data": [
    {"smiles": "NC[C@H]1O[C@H](O[C@H]2[C@H](O)[C@@H](O[C@H]3O[C@H](CO)[C@@H](O)[C@H](N)[C@H]3O)[C@H](N)C[C@@H]2N)[C@H](N)C[C@@H]1O", "note": "[tobramycin, Tobramycin]", "values": [
      {"measurement": "increment of the biofilm biomass compared to control", "setting": "[1]; 1.40 μmol/L, 24 h", "value": 17, "unit": "%"},
      {"measurement": "biomass change versus untreated control", "setting": "[1]; signed change", "value": "+17%"},
      {"measurement": "time dependent biofilm inhibition", "setting": "[2]", "value": "After 18 h, tobramycin was superior"},
      {"measurement": "critical concentration needed for 80% inhibition of viable P. aeruginosa pre-formed biofilm (MIC80)", "setting": "[3]", "value": "89.80 µM and 89.8 µM"},
      {"measurement": "Minimum inhibitory concentration (MIC80)", "setting": "[4]", "value": 1.4, "unit": "µM"},
      {"measurement": "MIC80", "setting": "[4]; Pseudomonas aeruginosa", "value": 1.4, "unit": "µM"},
      {"measurement": "MIC80", "setting": "[5]", "value": 1.4, "unit": "µM"}
    ]}
  ]
}
